The structures appear in SMILES notation.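 All cell lines were grown in 96-well plates and treated with compound for 48 hours. GI50 = concentration required for 50% inhibition of growth. TGI denotes the concentration required for complete inhibition of growth.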

Among the data in PubChem BioAssay (NCI) are GI50 and TGI values, retold here.

Some test systems named below: NCI-H460 lung; UACC-257 melanoma; HCT-15 colon; SK-MEL-2 melanoma; OVCAR-5 ovarian; OVCAR-4 ovarian; IGROV1 ovarian; MOLT-4 leukemia; NCI-H226 lung; HOP-62 NSCLC.
Assay in all cases: growth of human tumour cells (NCI), 48 h

As for `COc1cc(CNC(=O)/C=C/C=C/c2ccc3c(c2)OCO3)ccc1OCc1cn(-c2ccc(Cl)c(Cl)c2)nn1`, the GI50 with NCI-H460 lung was 0.445 µM; in the assay on UACC-257 melanoma, 1.8 µM; with HCT-15 colon, 0.519 µM; in the assay with SK-MEL-2 melanoma, 1.74 µM; in the assay on OVCAR-5 ovarian it was 1.77 µM; with OVCAR-4 ovarian, 1.09 µM. Moreover, the GI50 was 1.52 µM in the assay on IGROV1 ovarian, 0.738 µM in the assay on MOLT-4 leukemia, 1.74 µM in the assay with NCI-H226 lung and 1.79 µM with HOP-62 NSCLC. The TGI is 1.83 µM in the assay on NCI-H460 lung; 3.98 µM with UACC-257 melanoma; 2.5 µM in the assay on HCT-15 colon; 3.86 µM with SK-MEL-2 melanoma; 3.99 µM with OVCAR-5 ovarian; 2.72 µM in the assay on OVCAR-4 ovarian. In addition, the TGI in the assay on IGROV1 ovarian amounted to 3.75 µM; in the assay with MOLT-4 leukemia, 2.67 µM; with NCI-H226 lung, 4.31 µM; in the assay with HOP-62 NSCLC it was 3.86 µM.
With `C[N+](C)(C)CCOP(=O)(O)OP(=O)([O-])OCC1CCC(n2ccc(N)nc2=O)O1` (centres undefined), the TGI with NCI-H460 lung, with UACC-257 melanoma, with HCT-15 colon, with SK-MEL-2 melanoma, with OVCAR-5 ovarian and in the assay with OVCAR-4 ovarian was above 100 µM each time. The TGI in the assay on IGROV1 ovarian, in the assay on MOLT-4 leukemia, in the assay with NCI-H226 lung and in the assay with HOP-62 NSCLC was above 100 µM throughout.
Consider `CC(=O)OC1(C#N)CC2OC1C1C2N1C(=O)c1ccccc1` (centres undefined), for which the TGI in the assay on NCI-H460 lung, in the assay on HCT-15 colon, in the assay with SK-MEL-2 melanoma, in the assay with OVCAR-5 ovarian, in the assay on OVCAR-4 ovarian and in the assay on IGROV1 ovarian was above 100 µM in each case. For the same compound, the TGI in the assay with MOLT-4 leukemia, in the assay with NCI-H226 lung and in the assay with HOP-62 NSCLC was above 100 µM each time.
Regarding `OC(c1cc(C(O)(C(F)(F)F)C(F)(F)F)ncn1)(C(F)(F)F)C(F)(F)F`, the TGI with NCI-H460 lung, with UACC-257 melanoma, in the assay on HCT-15 colon, with SK-MEL-2 melanoma, with OVCAR-4 ovarian and with IGROV1 ovarian was above 10 µM each time. In addition, the TGI with MOLT-4 leukemia, with NCI-H226 lung and in the assay with HOP-62 NSCLC was above 10 µM throughout.
With `CCN(CC)CCn1ncc2ccc3c(c(=O)c4cccnc4n3CCN(CC)CC)c21`, the TGI in the assay on NCI-H460 lung is 2.45 µM; with UACC-257 melanoma it was 3.95 µM; with HCT-15 colon, 6 µM; in the assay with SK-MEL-2 melanoma it was 3.51 µM; with OVCAR-5 ovarian, above 7.07 µM; in the assay with OVCAR-4 ovarian it was 2.87 µM. The TGI in the assay on IGROV1 ovarian was found to be 4.22 µM; with MOLT-4 leukemia, 1.43 µM; in the assay with NCI-H226 lung, 5.44 µM; in the assay on HOP-62 NSCLC, 3.38 µM.
Take `COc1cc2c(cc1OC)C(CCc1ccc(Cl)cc1)N(C)CC2` (centres undefined): the GI50 in the assay on NCI-H460 lung was 17.8 µM; in the assay with UACC-257 melanoma, 27.2 µM; in the assay with HCT-15 colon, 30.2 µM; with SK-MEL-2 melanoma, 19.7 µM; in the assay on OVCAR-5 ovarian it was 19.6 µM; in the assay with OVCAR-4 ovarian it was 33.9 µM. The GI50 with IGROV1 ovarian is 36.9 µM; in the assay on MOLT-4 leukemia, 35.7 µM; in the assay with NCI-H226 lung, 58.6 µM; in the assay with HOP-62 NSCLC, 32.9 µM. Besides, the TGI in the assay on NCI-H460 lung is 40.2 µM; in the assay with UACC-257 melanoma it was 65.9 µM; in the assay on HCT-15 colon, above 100 µM; in the assay with SK-MEL-2 melanoma, 37.1 µM; in the assay with OVCAR-5 ovarian, 61.7 µM; with OVCAR-4 ovarian it was above 100 µM. The TGI with IGROV1 ovarian is above 100 µM; with MOLT-4 leukemia, 94.9 µM; in the assay with NCI-H226 lung, above 100 µM; in the assay on HOP-62 NSCLC, above 100 µM.
Turning to `O=C(NCCCN1CCN(CCCNC(=O)c2cnc3ccccc3n2)CC1)c1cnc2ccccc2n1`, the TGI in the assay on NCI-H460 lung, in the assay with UACC-257 melanoma, in the assay on HCT-15 colon, with SK-MEL-2 melanoma, in the assay with OVCAR-4 ovarian and in the assay with IGROV1 ovarian was above 100 µM throughout. Besides, the TGI with MOLT-4 leukemia, with NCI-H226 lung and in the assay with HOP-62 NSCLC was above 100 µM throughout.
As to `CC(=O)CC(=O)CCCC(=O)Nc1ccc(Cl)cc1C`, the TGI with NCI-H460 lung, with UACC-257 melanoma, in the assay on HCT-15 colon, in the assay with SK-MEL-2 melanoma, with OVCAR-5 ovarian and with OVCAR-4 ovarian was above 100 µM throughout. The TGI in the assay on IGROV1 ovarian, with MOLT-4 leukemia and in the assay with NCI-H226 lung was above 100 µM each time.
As for `Cc1cc(C)nc(NS(=O)(=O)c2ccc(Nc3c4ccccc4nc4c(C(=O)NCCN(C)C)ccc(Cl)c34)cc2)n1`, the TGI with NCI-H460 lung worked out at 2.7 µM; with HCT-15 colon, 10.1 µM; in the assay on SK-MEL-2 melanoma it was 12.1 µM; in the assay with OVCAR-5 ovarian it was 14.9 µM; with OVCAR-4 ovarian, 4.8 µM; in the assay on IGROV1 ovarian, 11.7 µM. Further, the TGI with NCI-H226 lung came to 2.77 µM; in the assay with HOP-62 NSCLC, 10.2 µM.
Take `CCCc1cc(=O)oc2c(C(=O)CC(C)C)c(O)c(CC=C(C)C)c(O)c12`: the GI50 is 8.03 µM in the assay on NCI-H460 lung; 5.89 µM in the assay on UACC-257 melanoma; 5.81 µM with HCT-15 colon; 9.71 µM in the assay with SK-MEL-2 melanoma; 10.7 µM with OVCAR-4 ovarian; 15.4 µM in the assay with IGROV1 ovarian. For the same compound, the GI50 was 11.7 µM in the assay with MOLT-4 leukemia, 11.8 µM with NCI-H226 lung and 17.6 µM with HOP-62 NSCLC. The TGI in the assay with NCI-H460 lung is above 50 µM; in the assay on UACC-257 melanoma, 29.9 µM; in the assay on HCT-15 colon, above 50 µM; in the assay with SK-MEL-2 melanoma, 49 µM; in the assay with OVCAR-4 ovarian it was above 50 µM; in the assay with IGROV1 ovarian, above 50 µM. Moreover, the TGI was above 50 µM in the assay on MOLT-4 leukemia, 38.5 µM in the assay with NCI-H226 lung and above 50 µM in the assay on HOP-62 NSCLC.
Take `CCCCCCCCCCCCCCCCOC(=O)C(C(=O)OCCCCCCCCCCCCCCCC)[N+](C)(C)CCOC(C)=O`: the TGI stood at 80.6 µM in the assay on NCI-H460 lung; 35 µM with UACC-257 melanoma; 46.1 µM with HCT-15 colon; 36.8 µM with SK-MEL-2 melanoma; 35.1 µM in the assay with OVCAR-5 ovarian; 32.4 µM in the assay on OVCAR-4 ovarian. In addition, the TGI was 13.7 µM in the assay with IGROV1 ovarian, 42.1 µM in the assay with NCI-H226 lung and 25.8 µM with HOP-62 NSCLC.
Regarding `N=C(N)n1ncc(Cl)c(Cl)c1=O`, the TGI with NCI-H460 lung was determined as 31.4 µM; with UACC-257 melanoma, 4.66 µM; in the assay with HCT-15 colon it was 3.99 µM; with SK-MEL-2 melanoma it was 6.93 µM; with OVCAR-5 ovarian, 30.7 µM; in the assay with OVCAR-4 ovarian, 3.41 µM. Moreover, the results for the TGI with IGROV1 ovarian, with MOLT-4 leukemia and with NCI-H226 lung were 28.7 µM, 4.64 µM and 18.3 µM, respectively.
`CN(C)CCNC(=O)c1cccc2nc3ccc4ccccc4c3nc12`: the TGI in the assay with NCI-H460 lung is 0.135 µM; with UACC-257 melanoma, 0.531 µM; in the assay with HCT-15 colon, 0.468 µM; in the assay with SK-MEL-2 melanoma, 0.335 µM; in the assay with OVCAR-5 ovarian, 0.55 µM; in the assay on OVCAR-4 ovarian, 1.02 µM. For the same compound, the TGI with MOLT-4 leukemia was 0.124 µM; in the assay on NCI-H226 lung, 0.513 µM; with HOP-62 NSCLC it was 0.352 µM.
Consider `COc1ccc(/C=C2/C(=O)N(C(=O)c3ccccc3O)N=C2C)cc1OC`, for which the TGI is above 100 µM with NCI-H460 lung; above 100 µM in the assay with UACC-257 melanoma; above 100 µM in the assay on HCT-15 colon; above 30.9 µM in the assay on SK-MEL-2 melanoma; above 100 µM in the assay with OVCAR-5 ovarian; above 100 µM with OVCAR-4 ovarian. Besides, the results for the TGI in the assay on MOLT-4 leukemia, in the assay with NCI-H226 lung and in the assay with HOP-62 NSCLC were above 100 µM, 40.5 µM and above 20.8 µM, respectively.
In the case of `O=C1C=C2S[C@H]3C[C@]2(C=C1Br)c1c(c(O)c2c4c1=NCCC=4C=N2)N3`, the TGI is 11.6 µM in the assay on NCI-H460 lung; 0.557 µM with UACC-257 melanoma; 1.99 µM with HCT-15 colon; 1.39 µM in the assay with SK-MEL-2 melanoma; 3.25 µM in the assay with OVCAR-5 ovarian; 0.985 µM in the assay on OVCAR-4 ovarian. For the same compound, the TGI was determined as 2.92 µM in the assay on IGROV1 ovarian, 0.418 µM with MOLT-4 leukemia and 4.86 µM in the assay with NCI-H226 lung.
For the compound `CCOC(=O)CC(=O)ON(C)C(=O)Cc1ccccc1`, the TGI in the assay on NCI-H460 lung, with UACC-257 melanoma, in the assay on HCT-15 colon, in the assay with SK-MEL-2 melanoma, in the assay with OVCAR-5 ovarian and in the assay with OVCAR-4 ovarian was above 100 µM throughout. Moreover, the TGI in the assay on IGROV1 ovarian, with NCI-H226 lung and in the assay with HOP-62 NSCLC was above 100 µM in each case.
`C/C=C/C=N/N(c1nnc(-c2ccccc2)c(-c2ccccc2)n1)S(=O)(=O)c1ccc(C)cc1`: the TGI with NCI-H460 lung was 28.3 µM; in the assay on UACC-257 melanoma it was 20.9 µM; with HCT-15 colon, 18.6 µM; in the assay on SK-MEL-2 melanoma, 24.1 µM; with OVCAR-5 ovarian, 33.5 µM; in the assay with OVCAR-4 ovarian it was 28.2 µM. For the same compound, the TGI in the assay with IGROV1 ovarian is 29.3 µM; in the assay on MOLT-4 leukemia, 26.6 µM; with NCI-H226 lung, 31.2 µM.
Take `CC(C)(O)[C@@H]1CCC(C)([C@H]2[C@@H](O)CC3(C)C4CC(OC5OC(CO)C(O)C(O)C5O)C5C(C)(C)[C@@H](OC6OCC(O)C(O)C6O)CC[C@@]56C[C@@]46CC[C@]23C)O1` (some centres undefined): the TGI in the assay with NCI-H460 lung, in the assay with UACC-257 melanoma, with HCT-15 colon, with SK-MEL-2 melanoma, with OVCAR-5 ovarian and in the assay on OVCAR-4 ovarian was above 100 µM in each case. For the same compound, the TGI with IGROV1 ovarian, with MOLT-4 leukemia and in the assay with NCI-H226 lung was above 100 µM each time.
